What was measured:
wheat = assay: Test A preemergence; assay type: in vivo, Triticum aestivum; settings: preemergence
Procedure, shortened: (§1)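 After sowing in a sand–loam mix, pots received compound preemergence by directed soil spray, or postemergence once plants reached the one- to two-leaf stage (2–10 cm). Formulation contained surfactant in a non-phytotoxic solvent. Injury was scored visually after ~10 greenhouse days, 0–100 scale.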

galium [1] = assay: Test C preemergence; assay type: in vivo, Galium aparine; settings: preemergence
Procedure, shortened: (§2)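 In this greenhouse assay, seeded soil (loam plus sand) or emerged seedlings in peat-vermiculite medium were treated with formulated compound. Roughly two weeks later (13–15 days), each species was scored visually relative to controls, from 0 for no effect to 100 for complete control.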

corn [2] = assay: Test A postemergence; assay type: in vivo, Zea mays
Procedure, shortened: as §1

corn [3] = assay: Test C preemergence; assay type: in vivo, Zea mays; settings: preemergence
Procedure, shortened: as §2

crabgrass, large [4] = assay: Test A preemergence; assay type: in vivo, Digitaria sanguinalis; settings: preemergence
Procedure, shortened: as §1

galium [5] = assay: Test C postemergence; assay type: in vivo, Galium aparine
Procedure, shortened: as §2

foxtail, giant [6] = assay: Test C postemergence; assay type: in vivo, Setaria faberii
Procedure, shortened: as §2

blackgrass = assay: Test C postemergence; assay type: in vivo, Alopecurus myosuroides
Procedure, shortened: as §2

foxtail, giant [7] = assay: Test A postemergence; assay type: in vivo, Setaria faberii
Procedure, shortened: as §1

barnyardgrass = assay: Test C postemergence; assay type: in vivo, Echinochloa crus-galli
Procedure, shortened: as §2

nutsedge, yellow = assay: Test C preemergence; assay type: in vivo, Cyperus esculentus; settings: preemergence
Procedure, shortened: as §2

waterhemp = assay: Test C preemergence; assay type: in vivo, Amaranthus rudis; settings: preemergence
Procedure, shortened: as §2

morningglory [8] = assay: Test A postemergence; assay type: in vivo, Ipomoea spp.; settings: Postemergence
Procedure, shortened: as §1

crabgrass, large [9] = assay: Test A postemergence; assay type: in vivo, Digitaria sanguinalis
Procedure, shortened: as §1

morningglory [10] = assay: Test C postemergence; assay type: in vivo, Ipomoea coccinea
Procedure, shortened: as §2

ryegrass, Italian = assay: Test C preemergence; assay type: in vivo, Lolium multiflorum; settings: preemergence
Procedure, shortened: as §2

[11] = 125 g ai/ha, visual injury approx. 10 days after treatment
[12] = 500 g ai/ha, visual injury after approx. 10 days, 0 to 100 scale (0 no effect, 100 complete control)
[13] = 31 g ai/ha, visual rating, scale 0 to 100 (0 no effect, 100 complete control), 13 to 15 days
[14] = 62 g ai/ha, scale 0 to 100 (0 no effect, 100 complete control), 13 to 15 days
[15] = 125 g ai/ha, 13 to 15 days, scale 0 to 100, 0 = no effect, 100 = complete control
[16] = 250 g ai/ha, scale 0 to 100, 0 is no effect, 100 is complete control
[17] = Postemergence, 500 g ai/ha, 0 to 100 scale (0 no effect, 100 complete control)
[18] = postemergence, 125 g ai/ha, about 10 days, visual rating on 0 to 100 scale (0 no effect, 100 complete control)
[19] = Postemergence, 31 g ai/ha, visually evaluated after 13 to 15 days
[20] = postemergence, 62 g ai/ha, scale 0 to 100
[21] = postemergence, 250 g ai/ha, scale 0 to 100 (0 no effect, 100 complete control)
[22] = postemergence, 125 g ai/ha, scale 0 to 100, 0 no effect, 100 complete control

Q: What does the source list for `CCCc1cc(C(=O)NC2CC2)nn1Cc1cc(C(F)(F)F)nn1C` [Compound 202]?
A: Wheat plant response rating (0 to 100 scale) (wheat; [11]): 30; Wheat plant response rating (wheat; [12]): 100; Galium plant response rating (galium [1]; [13]): 98; Galium plant response rating (galium [1]; [14]): 100; Plant response rating, Galium (galium [1]; [15]): 100; Galium plant response rating (galium [1]; [16]): 100; Corn plant response rating (corn [2]; [17]): 90; Corn plant response rating (corn [2]; [18]): 80; Corn plant response rating (corn [3]; [13]): 5; Corn plant response rating (corn [3]; [14]): 35; Plant response rating, Corn (corn [3]; [15]): 60; Corn plant response rating (corn [3]; [16]): 95; Crabgrass, Large plant response rating (0 to 100 scale) (crabgrass, large [4]; [11]): 100; Crabgrass, Large plant response rating (crabgrass, large [4]; [12]): 100; Plant response rating (scale of 0 to 100 where 0 is no effect and 100 is complete control), Galium (galium [5]; [19]): 65; Galium plant response rating (galium [5]; [20]): 85; Plant response rating, Galium (galium [5]; [21]): 95; Plant response rating, Galium (galium [5]; [22]): 90; Plant response rating (scale of 0 to 100 where 0 is no effect and 100 is complete control), Foxtail, Giant (foxtail, giant [6]; [19]): 5; Foxtail, Giant plant response rating (foxtail, giant [6]; [20]): 10; Plant response rating, Foxtail, Giant (foxtail, giant [6]; [21]): 35; Plant response rating, Foxtail, Giant (foxtail, giant [6]; [22]): 10; Plant response rating (scale of 0 to 100 where 0 is no effect and 100 is complete control), Blackgrass (blackgrass; [19]): 5; Blackgrass plant response rating (blackgrass; [20]): 10; Plant response rating, Blackgrass (blackgrass; [21]): 30; Plant response rating, Blackgrass (blackgrass; [22]): 20; Foxtail, Giant plant response rating (foxtail, giant [7]; [17]): 90; Foxtail, Giant plant response rating (foxtail, giant [7]; [18]): 90; Plant response rating (scale of 0 to 100 where 0 is no effect and 100 is complete control), Barnyardgrass (barnyardgrass; [19]): 10; Barnyardgrass plant response rating (barnyardgrass; [20]): 10; Plant response rating, Barnyardgrass (barnyardgrass; [21]): 25; Plant response rating, Barnyardgrass (barnyardgrass; [22]): 15; Nutsedge, Yellow plant response rating (nutsedge, yellow; [13]): 0; Nutsedge, Yellow plant response rating (nutsedge, yellow; [14]): 5; Plant response rating, Nutsedge, Yellow (nutsedge, yellow; [15]): 30; Nutsedge, Yellow plant response rating (nutsedge, yellow; [16]): 50; Waterhemp plant response rating (waterhemp; [13]): 100; Waterhemp plant response rating (waterhemp; [14]): 100; Plant response rating, Waterhemp (waterhemp; [15]): 100; Waterhemp plant response rating (waterhemp; [16]): 100; Morningglory plant response rating (morningglory [8]; 125 g ai/ha, 0 to 100 scale, 0 no effect, 100 complete control): 70; Morningglory plant response rating (morningglory [8]; 500 g ai/ha, 0 to 100 scale (0 no effect, 100 complete control)): 90; Crabgrass, Large plant response rating (crabgrass, large [9]; [17]): 100; Crabgrass, Large plant response rating (crabgrass, large [9]; [18]): 90; Plant response rating (scale of 0 to 100 where 0 is no effect and 100 is complete control), Morningglory (morningglory [10]; [19]): 35; Morningglory plant response rating (morningglory [10]; [20]): 40; Plant response rating, Morningglory (morningglory [10]; [21]): 98; Plant response rating, Morningglory (morningglory [10]; [22]): 90; Ryegrass, Italian plant response rating (ryegrass, Italian; [13]): 5; Ryegrass, Italian plant response rating (ryegrass, Italian; [14]): 50; Plant response rating, Ryegrass, Italian (ryegrass, Italian; [15]): 90; Ryegrass, Italian plant response rating (ryegrass, Italian; [16]): 90

From US20150105252A1, “SUBSTITUTED PYRAZOLES AS HERBICIDES” (E I DU PONT DE NEMOURS AND COMPANY, priority 2013, published 2015)
